Where “and” joins values, the source holds several entries; their conditions need not be identical. Identical values can stand only once.
Test: xn = mol fraction of the nth substance listed
Conditions: Gas, Buoyancy - hydrostatic balance with magnetic suspension - two sinkers

CC [ethane] + O=C=O
Conditions	mass density
273.15 K, 531.09 kPa, x1 = 0.2003	10.008 kg/m3
273.15 K, 531.52 kPa, x1 = 0.2003	10.0165 kg/m3
273.15 K, 531.92 kPa, x1 = 0.2003	10.0243 kg/m3
273.15 K, 534.39 kPa, x1 = 0.2003	10.0711 kg/m3
273.15 K, 534.79 kPa, x1 = 0.2003	10.0789 kg/m3
273.15 K, 535.19 kPa, x1 = 0.2003	10.087 kg/m3
273.15 K, 535.63 kPa, x1 = 0.2003	10.0955 kg/m3
273.15 K, 544.52 kPa, x1 = 0.2003	10.2735 kg/m3
273.15 K, 544.86 kPa, x1 = 0.2003	10.2801 kg/m3
273.15 K, 548.14 kPa, x1 = 0.4995	9.33133 kg/m3
273.15 K, 551.38 kPa, x1 = 0.05023	10.9267 kg/m3
273.15 K, 1023.8 kPa, x1 = 0.2003	20.0462 kg/m3
273.15 K, 1024.6 kPa, x1 = 0.2003	20.0627 kg/m3
273.15 K, 1025.4 kPa, x1 = 0.2003	20.0779 kg/m3
273.15 K, 1026.6 kPa, x1 = 0.2003	20.1024 kg/m3
273.15 K, 1027 kPa, x1 = 0.2003	20.1108 kg/m3
273.15 K, 1027.6 kPa, x1 = 0.2003	20.1219 kg/m3
273.15 K, 1037.4 kPa, x1 = 0.2003	20.3384 kg/m3
273.15 K, 1037.8 kPa, x1 = 0.2003	20.347 kg/m3
273.15 K, 1051.5 kPa, x1 = 0.4995	18.6959 kg/m3
273.15 K, 1075.8 kPa, x1 = 0.05023	22.195 kg/m3
273.15 K, 2035.1 kPa, x1 = 0.2003	43.7258 kg/m3
273.15 K, 2035.5 kPa, x1 = 0.2003	43.7371 kg/m3
273.15 K, 2050.8 kPa, x1 = 0.4995	40.4917 kg/m3
273.15 K, 2062 kPa, x1 = 0.05023	46.5645 kg/m3
273.15 K, 2554 kPa, x1 = 0.4995	53.9302 kg/m3
273.15 K, 2562.2 kPa, x1 = 0.05023	61.2253 kg/m3
273.15 K, 3037.3 kPa, x1 = 0.2003	73.9637 kg/m3
273.15 K, 3037.9 kPa, x1 = 0.2003	73.9838 kg/m3
273.15 K, 3053.1 kPa, x1 = 0.05023	77.9966 kg/m3
273.15 K, 3054.4 kPa, x1 = 0.4995	70.1143 kg/m3
273.15 K, 3480.6 kPa, x1 = 0.2003	91.4391 kg/m3 and 91.4331 kg/m3
273.15 K, 3488.2 kPa, x1 = 0.2003	91.7868 kg/m3
273.15 K, 3488.7 kPa, x1 = 0.2003	91.8117 kg/m3
273.15 K, 3489.4 kPa, x1 = 0.2003	91.84 kg/m3
273.15 K, 3507.2 kPa, x1 = 0.2003	92.6352 kg/m3 and 92.638 kg/m3
283.15 K, 518.17 kPa, x1 = 0.2003	9.36982 kg/m3
283.15 K, 519.18 kPa, x1 = 0.05023	9.86023 kg/m3
283.15 K, 538.66 kPa, x1 = 0.4995	8.79999 kg/m3
283.15 K, 1030 kPa, x1 = 0.05023	20.2371 kg/m3
283.15 K, 1031.7 kPa, x1 = 0.4995	17.4887 kg/m3
283.15 K, 1041.5 kPa, x1 = 0.2003	19.5141 kg/m3
283.15 K, 2018.1 kPa, x1 = 0.4995	37.3012 kg/m3
283.15 K, 2025.9 kPa, x1 = 0.05023	42.9555 kg/m3
283.15 K, 2038.1 kPa, x1 = 0.2003	41.2701 kg/m3
283.15 K, 3029.9 kPa, x1 = 0.05023	70.7861 kg/m3
283.15 K, 3032.8 kPa, x1 = 0.4995	62.9635 kg/m3
283.15 K, 3042.8 kPa, x1 = 0.2003	68.0188 kg/m3
283.15 K, 3546.2 kPa, x1 = 0.05023	88.2259 kg/m3
283.15 K, 3550.3 kPa, x1 = 0.4995	79.7057 kg/m3
283.15 K, 4013.1 kPa, x1 = 0.4995	98.6426 kg/m3
283.15 K, 4045.7 kPa, x1 = 0.05023	108.543 kg/m3
283.15 K, 4069.8 kPa, x1 = 0.2003	104.912 kg/m3
283.15 K, 4501.8 kPa, x1 = 0.2003	126.607 kg/m3
283.15 K, 4602.7 kPa, x1 = 0.2003	132.714 kg/m3
283.15 K, 4730.9 kPa, x1 = 0.2003	141.359 kg/m3
283.15 K, 4821.7 kPa, x1 = 0.2003	148.288 kg/m3
293.15 K, 519.57 kPa, x1 = 0.2003	9.04307 kg/m3
293.15 K, 525.66 kPa, x1 = 0.4995	8.25163 kg/m3
293.15 K, 1026.1 kPa, x1 = 0.4995	16.6496 kg/m3
293.15 K, 1034.3 kPa, x1 = 0.2003	18.5618 kg/m3
293.15 K, 2026.9 kPa, x1 = 0.2003	38.8656 kg/m3
293.15 K, 2045.8 kPa, x1 = 0.4995	35.8484 kg/m3
293.15 K, 3032.6 kPa, x1 = 0.4995	58.2406 kg/m3
293.15 K, 3042.1 kPa, x1 = 0.2003	63.2873 kg/m3
293.15 K, 4051.5 kPa, x1 = 0.4995	88.2376 kg/m3
293.15 K, 4055.4 kPa, x1 = 0.2003	93.5899 kg/m3
293.15 K, 4555.2 kPa, x1 = 0.4995	107.86 kg/m3
293.15 K, 5019.3 kPa, x1 = 0.4995	131.598 kg/m3
293.15 K, 5020.8 kPa, x1 = 0.2003	133.141 kg/m3
308.15 K, 542.53 kPa, x1 = 0.4995	8.06912 kg/m3
308.15 K, 1040.9 kPa, x1 = 0.4995	15.9143 kg/m3
308.15 K, 2034.5 kPa, x1 = 0.4995	33.0477 kg/m3
308.15 K, 3050.6 kPa, x1 = 0.4995	53.2563 kg/m3
308.15 K, 4038.3 kPa, x1 = 0.4995	76.6788 kg/m3
308.15 K, 4551.5 kPa, x1 = 0.4995	90.9786 kg/m3
308.15 K, 5013.9 kPa, x1 = 0.4995	105.639 kg/m3
323.15 K, 524.46 kPa, x1 = 0.05023	8.6271 kg/m3
323.15 K, 543.73 kPa, x1 = 0.4995	7.68033 kg/m3
323.15 K, 1024.4 kPa, x1 = 0.4995	14.7964 kg/m3
323.15 K, 1024.9 kPa, x1 = 0.05023	17.2074 kg/m3
323.15 K, 2039.4 kPa, x1 = 0.05023	35.7934 kg/m3
323.15 K, 2040.2 kPa, x1 = 0.4995	31.0101 kg/m3
323.15 K, 3036.4 kPa, x1 = 0.4995	48.806 kg/m3
323.15 K, 3038.7 kPa, x1 = 0.05023	55.972 kg/m3
323.15 K, 4027.4 kPa, x1 = 0.4995	68.9564 kg/m3
323.15 K, 4049.9 kPa, x1 = 0.05023	78.8065 kg/m3
323.15 K, 5024.6 kPa, x1 = 0.4995	92.5708 kg/m3
323.15 K, 5061.4 kPa, x1 = 0.05023	104.85 kg/m3
323.15 K, 5982.2 kPa, x1 = 0.4995	119.675 kg/m3
323.15 K, 6013.8 kPa, x1 = 0.05023	133.393 kg/m3
